Key:
[1] = target: T1, MLLT1 (Homo sapiens, UniProt Q03111); test: MLLT1 DC50 and Dmax determination in MV4-11 cells (JESS, 4 h); format: cell-based; design: endogenous in cells; host or cells: MV4-11 (ATCC CRL-9591); conditions: MLLT1 degradation
T1 sequence (Q03111 1-559): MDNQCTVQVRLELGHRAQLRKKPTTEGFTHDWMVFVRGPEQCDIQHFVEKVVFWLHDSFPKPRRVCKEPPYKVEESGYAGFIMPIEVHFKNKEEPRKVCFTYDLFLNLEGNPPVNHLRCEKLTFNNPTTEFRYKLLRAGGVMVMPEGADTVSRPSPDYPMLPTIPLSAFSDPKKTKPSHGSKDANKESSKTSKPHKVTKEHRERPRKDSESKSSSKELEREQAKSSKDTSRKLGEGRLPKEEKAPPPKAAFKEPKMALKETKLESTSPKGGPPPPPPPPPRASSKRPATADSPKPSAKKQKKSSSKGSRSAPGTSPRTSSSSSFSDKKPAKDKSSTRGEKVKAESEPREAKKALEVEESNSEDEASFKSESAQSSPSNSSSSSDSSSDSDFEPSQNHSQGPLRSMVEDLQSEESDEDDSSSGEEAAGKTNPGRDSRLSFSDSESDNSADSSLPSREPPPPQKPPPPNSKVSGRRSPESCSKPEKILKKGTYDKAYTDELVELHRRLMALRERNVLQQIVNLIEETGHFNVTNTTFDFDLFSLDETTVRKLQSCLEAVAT
Experimental: MLLT1 degradation efficacy of compounds was tested in an automated chemiluminescent detection system (JESS, Cat #004-650). MV4-11 (#CRL-9591, ATCC) were seeded at a density of 1.2 million cells/well in a non-treated 6-well cell culture plate in 2.4 mL of complete medium (IMDM+10% FBS+1× Penicillin-Streptomycin). 10 mM DMSO stocks were prepared, and cells were treated with eight concentrations of test compounds, starting from 100 nM, 5-fold dilution, at a final DMSO concentration of 0.1% and incubated for 4 h at 37° C., 5% CO2. Post incubation, cells were centrifuged, washed with HBSS and lysed in 60 μL of RIPA buffer supplemented with Protease inhibitors (sc-24948; Santa Cruz). Protein estimation was done using BCA protein assay kit (23228; Pierce). 4 gg protein lysate (4 μL of 1 μg/μL lysate) was loaded into each well of the JESS cartridge (SM-W004; Bio-techne) and the JESS run was performed using 1:900 dilution of anti-human MLLT1 antibody (ABE2596; Merck) and 1:1200 dilution of anti-human GAPDH antibody (2118; Cell signaling technology) with anti-rabbit secondary detection module (DM-001; Bio-Techne). Post run, data was analysed using “Compass for SW” software for chemiluminescent detection. Peak fit was done using “dropped lines” method. Peak area for MLLT1 and GAPDH was used for the calculation of MLLT1 degradation with respect to DMSO control. Data was shown as “% degradation”. % Degradation was plotted against the respective doses (test compound concentration) and dose-response curve (DRC) was generated using four-parameter logistic equation (non-linear regression). Following parameters for each DRC was captured: DC50 (concentration in nM at which degradation is 50%, interpolated from standard curve and transformed to linear scale), Dmax (maximum % degradation observed). DC50 and Dmax data are captured in Table 7 for Example 1 and Example 110, which is a comparative example.

[2] = target: T1, MLLT1; test: MLLT1 degradation assay in MV4-11 cells (JESS, 24 h); format: cell-based; design: endogenous in cells; host or cells: MV4-11 (ATCC CRL-9591); conditions: vs DMSO control
How it was run: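 MV4-11 cells treated at 1000, 100 and 10 nM (0.1% DMSO) for 24 h at 37° C; lysates (4 ug protein) run on JESS capillary immunoassay with MLLT1 and GAPDH antibodies. Peak areas give % degradation versus DMSO, binned A (≥75%) to D (<25%).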

SMILES: Cc1nn(CCCCCCCC#Cc2cccc3c2CN(C2CCC(=O)NC2=O)C3=O)c2cc(C(=O)Nc3cc4[nH]c([C@H]5CCCN5C)cc4cn3)ccc12 (mixture of isomers) [Example 1, 1-(9-(2-(2,6-dioxopiperidin-3-yl)-1-oxoisoindolin-4-yl)non-8-yn-1-yl)-3-methyl-N-(2-((R)-1-methylpyrrolidin-2-yl)-1H-pyrrolo[3,2-c]pyridin-6-yl)-1H-indazole-6-carboxamide]
- DC50 [1]: 0.5 nM
- Dmax ([1]; maximum % degradation observed): 87%
- MLLT1% Degradation @ 0.01 μM ([2]; 0.01 μM): A (Category A: A≥75% degradation)
- MLLT1% Degradation @ 0.1 μM ([2]; 0.1 μM): A (Category A: A≥75% degradation)
- MLLT1% Degradation @ 1 μM ([2]; 1 μM): A (Category A: A≥75% degradation)
